Experimental data published in ChEMBL document CHEMBL4145494, “Synthesis and biological evaluation of aurora kinases inhibitors based on N-trisubstituted pyrimidine scaffold” (Eur J Med Chem, 2018).

How the values were obtained:
[1] = target: Aurora kinase B (Homo sapiens, UniProt Q96GD4); test: Inhibition of AURKB (unknown origin) using FAM-labeled peptide substrate preincubated for 10 mins followed by substrate addition measured after 60 mins by caliper assay
[2] = system: U-937; test: Antiproliferative activity against human U937 cells after 48 hrs by CCK8 assay; assay type: functional, cell-based; conditions: U-937, 48 h
[3] = system: MCF7; test: Antiproliferative activity against human MCF7 cells after 48 hrs by CCK8 assay; assay type: functional, cell-based; conditions: MCF7, 48 h
[4] = system: K562; test: Antiproliferative activity against human K562 cells after 48 hrs by CCK8 assay; assay type: functional, cell-based; conditions: K562, 48 h
[5] = system: MDA-MB-231; test: Antiproliferative activity against human MDA-MB-231 cells after 48 hrs by CCK8 assay; assay type: functional, cell-based; conditions: MDA-MB-231, 48 h
[6] = system: HeLa; test: Antiproliferative activity against human HeLa cells after 48 hrs by CCK8 assay; assay type: functional, cell-based
[7] = target: T1, Aurora kinase A (Homo sapiens, UniProt O14965); test: Inhibition of AURKA (unknown origin) using FAM-labeled peptide substrate preincubated for 10 mins followed by substrate addition measured after 60 mins by caliper assay
T1 sequence (O14965 whole entry): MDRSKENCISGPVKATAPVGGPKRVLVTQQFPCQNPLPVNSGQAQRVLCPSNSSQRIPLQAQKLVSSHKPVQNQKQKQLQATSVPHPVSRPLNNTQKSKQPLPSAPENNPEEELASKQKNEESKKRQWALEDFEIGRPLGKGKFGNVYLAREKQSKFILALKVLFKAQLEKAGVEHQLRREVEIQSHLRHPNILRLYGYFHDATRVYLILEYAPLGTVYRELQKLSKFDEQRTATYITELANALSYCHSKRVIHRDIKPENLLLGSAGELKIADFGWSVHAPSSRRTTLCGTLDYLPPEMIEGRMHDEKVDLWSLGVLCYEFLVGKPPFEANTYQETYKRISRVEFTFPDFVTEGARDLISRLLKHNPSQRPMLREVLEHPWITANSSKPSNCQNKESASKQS

[8] = system: A-431; test: Antiproliferative activity against human A431 cells after 48 hrs by CCK8 assay; assay type: functional, cell-based; conditions: A-431, 48 h
[9] = system: HCT-116; test: Antiproliferative activity against human HCT116 cells after 48 hrs by CCK8 assay; assay type: functional, cell-based; conditions: HCT-116, 48 h

Chain of Aurora kinase B (Q96GD4 whole entry): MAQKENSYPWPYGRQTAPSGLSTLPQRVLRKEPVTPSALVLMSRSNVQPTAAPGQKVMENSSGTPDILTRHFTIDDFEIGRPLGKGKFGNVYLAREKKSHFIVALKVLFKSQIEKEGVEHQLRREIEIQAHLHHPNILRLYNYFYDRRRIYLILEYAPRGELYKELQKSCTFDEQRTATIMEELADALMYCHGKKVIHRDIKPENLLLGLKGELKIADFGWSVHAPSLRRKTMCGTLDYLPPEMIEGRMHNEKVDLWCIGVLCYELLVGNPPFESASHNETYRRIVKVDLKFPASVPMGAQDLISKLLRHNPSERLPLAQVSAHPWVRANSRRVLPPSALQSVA

Row | SMILES | IC50 [1] [nM] | IC50 [2] [nM] | IC50 [3] [nM] | IC50 [4] [nM] | IC50 [5] [nM] | IC50 [6] [nM] | IC50 [7] [nM] | IC50 [8] [nM] | IC50 [9] [nM]
1 | COC(=O)c1ccc(Nc2nc(Nc3cc(C)[nH]n3)cc(N3CCN(C)CC3)n2)cc1F | 145 | 94.2 | 7630 | 393 | 238 | 507 | 35 | 375 | 688
2 | COc1ccc(Nc2nc(Nc3cc(C)[nH]n3)cc(N3CCN(C)CC3)n2)cc1OC | 452 | 150 | 6540 | 462 | 459 | 678 | 38 | 778 | 777

Stronger by IC50 [1], values ahead:

Row | IC50 [1] [nM] | IC50 [2] [nM] | IC50 [3] [nM] | IC50 [4] [nM] | IC50 [5] [nM] | IC50 [6] [nM] | IC50 [7] [nM] | IC50 [8] [nM] | IC50 [9] [nM] | SMILES
3 | 34.6 | 24 | 577 | 213 | 101 | 464 | 6.3 |  |  | Cc1cc(Nc2cc(N3CCOCC3)nc(Nc3ccc(F)c(Cl)c3)n2)n[nH]1
4 | 101 | 24.8 | 818 | 218 | 155 | 374 | 31 | 136 | 252 | Cc1cc(Nc2cc(N3CCN(C)CC3)nc(Nc3ccc(Cl)c(F)c3)n2)n[nH]1
5 | 50 | 17.9 | 552 | 128 | 84.9 | 299 | 33 | 129 | 106 | Cc1cc(Nc2cc(N3CCN(C)CC3)nc(Nc3ccc(Cl)c(Cl)c3)n2)n[nH]1
6 | 75.1 | 43.2 | 873 | 357 | 255 | 680 | 23 | 340 | 653 | Cc1cc(Nc2cc(N3CCN(C)CC3)nc(Nc3ccc(F)cc3)n2)n[nH]1
